Experiments:
[1] = test system: MMP-1, MMP-2, MMP-9, MMP-13, PLAT, PAI-1 mRNA; test: qRT-PCR gene expression in sheep TM and ciliary processes after tPA (Examples 6, 7); format: in vivo
Excerpt: Methods. Tissue Collection and Isolation of RNA. After animals were euthanized, eyes were immediately enucleated. Eyes were then opened anterior to the equator using a razor blade. The lens was removed from the anterior part, and the tissue was immersed in RNA stabilizing agent (RNAlater; Ambion, Carlsbad, Calif.) and placed […] for transportation to the United States. Upon arrival in the United States, TM and ciliary processes (CP) were dissected on ice in the presence of RNA stabilizing agent as described previously. Dissected tissue was homogenized, and total RNA was extracted using TRIzol reagent (Gibco, Carlsbad, Calif.). Briefly, the tissue was homogenized in TRIzol, and chloroform was added to separate proteins from RNA. After centrifugation, the RNA-containing supernatant was aspirated. The RNA was precipitated with isopropanol, washed with 75% ethanol, treated with DNase, and column purified using a commercial kit (RNAeasy Mini Kit; Qiagen, Valencia, Calif.) in accordance with the manufacturer's instructions. RNA concentrations were determined with a spectrophotometer (Nanodrop; Thermo Scientific, Wilmington, Del.) and the 260:280-nm absorbance ratio was calculated to determine RNA purity.
Quantitative Real-Time PCR (qRT-PCR) The RNA samples were reverse transcribed with random hexamers to cDNA using a reverse transcription kit (Quantitect; Qiagen) in accordance with the manufacturer's instructions. Quantitative RT-PCR was performed using a commercial kit (SYBR Green RT-PCR Reagents Kit; Applied Biosystems, Carlsbad, Calif.) in an ABI PRISM 7900HT sequence detector (Applied Biosystems). […] Plasminogen activator inhibitor 1 (PAI-1) mRNA expression was measured in both TM and ciliary processes tissues. Relative quantification of gene expression was performed using the standard curve method. […] The DCt was calculated as the difference in Ct values derived from the target gene and the 18S gene. The DDCt was calculated as DCt of the normalized assayed genes in the treated samples minus DCt of normalized assayed genes in the naïve control samples. […]

Mmp-2, Mmp-9, Mmp-13 [2] = test: Mmp expression in TA and protein treated C57BL/6J eyes (Example 13); format: in vivo, mouse; details: vs BSA treated controls
Mmp-2, Mmp-9, Mmp-13 [3] = test: Mmp expression in protein treated PlatKO eyes (Example 14); format: in vivo, mouse; details: vs BSA treated eyes
Experimental: Tissue collection and confirmation of transgene expression: After outflow facility determination in adenovirus treated mice, mCherry expression in the TM was determined in all AdPLAT and AdPLATNE injected eyes. The eyes were dissected on ice to isolate a rim of tissue containing the TM by removing most of the iris and ciliary body. […] After observation, dissected rims were immediately immersed in RNA stabilizing agent (RNAlater, Invitrogen by ThermoFisher Scientific, Waltham, Mass., USA) and frozen. For TM tissue collection following protein treatment, all eyes were flash frozen in liquid nitrogen and subsequently dissected on ice to obtain the angle ring containing the TM tissues as previously described^43. Dissected TM tissues were immersed in RNAlater solution and then snap-frozen and stored at −80° C. until RNA extraction.
RNA isolation and quantitative real time PCR: Tissue collected was pooled (four eyes) and homogenized in TRIzol reagent (Life Technologies, Carlsbad, Calif., USA). RNA was isolated per the manufacturer's instructions and resuspended in nuclease-free water. RNA concentration was determined with a Nanodrop ND-1000 Spectrophotometer (ThermoFisher Scientific, Waltham, Mass., USA). cDNA was synthesized by using High-Capacity cDNA Reverse Transcription Kit (Applied Biosystems, Waltham, Mass., USA) according to manufacturer's protocol. Quantitative real-time PCR (qRT-PCR) was performed by using Green-2-Go qPCR Mastermix-ROX (BioBasic, Amherst, N.Y., USA) on a QuantStudio 6 Flex thermal cycler (Applied Biosystems, Carlsbad, Calif., USA).
mRNA expression of sheep PLAT and mouse Mmp-2, Mmp-9, and Mmp-13 in angle ring tissues was determined. Primers were designed by using Primer-BLAST (https://www.ncbi.nlm.nih.gov/tools/primer-blast/index.cgi?LINK_LOC=BlastHome; in the public domain) and their specificity was confirmed by the presence of a single band of the expected size on agarose gel electrophoresis. […] The relative fold change was calculated by using the ΔΔCt method. […]

Mmp-2, Mmp-9, Mmp-13 [4] = test: Mmp expression in Tg-MYOCY437H angle ring tissue (Example 19); format: in vivo, mouse; details: vs BSA treated eyes
Experimental: Eyes were flash frozen in liquid nitrogen after outflow facility determination and subsequently dissected on ice to obtain the angle ring tissues containing the TM, as previously described (Kumar, Shah et al. 2013). Dissected TM tissues were immersed in RNAlater solution (Invitrogen, Waltham, Mass., USA) and then snap-frozen and stored at −80° C. until RNA extraction. Tissue collected was pooled (four eyes) and homogenized in TRIzol reagent for RNA isolation, per manufacturer's instructions (Life Technologies, Carlsbad, Calif., USA). RNA concentration was determined with a Nanodrop ND-1000 Spectrophotometer (Thermo Scientific, Wilmington, Del., USA). cDNA was synthesized by using High-Capacity cDNA Reverse Transcription Kit (Applied Biosystems, Waltham, Mass., USA) according to manufacturer's protocol. Quantitative real-time PCR (qRT-PCR) was performed by using Green-2-Go qPCR Mastermix-ROX (Bio Basic, Amherst, N.Y., USA) on a QuantStudio 6 Flex thermal cycler (Applied Biosystems, Carlsbad, Calif., USA). mRNA expression of Plat, Plau, Pai-1, Mmp-2, Mmp-9, and Mmp-13 in angle ring tissues was determined. Primers were designed by using Primer-BLAST (https://www.ncbi.nlm.nih.gov/tools/primer-blast/index.cgi?LINK_LOC=BlastHome; in the public domain); primer sequences are listed in Table 2. Primer specificity was confirmed by agarose gel electrophoresis and multiple-sized amplification products were absent on inspection of melting curves. Target mRNA expression values were normalized to the expression levels of Rps11 (ribosomal protein S11). The relative fold change was calculated by using the ΔΔCt method (Hu, Wang et al. 2015). Outliers identified via the Thompson Tau test were removed from analysis.

Substance: tissue plasminogen activator [tPA]
- PLAT expression ([1]; sheep TM (FIG. 7)): down-regulates
- expression of MMP1 and MMP9 ([1]; sheep TM (FIG. 7)): up-regulates
- expression of MMP1, MMP2, MMP9, MMP13 and PAI-1 ([1]; sheep trabecular meshwork and ciliary processes): up-regulates
- Mmp-2, Mmp-9 and Mmp-13 expression (Mmp-2, Mmp-9, Mmp-13 [2]): significant upregulation
- Mmp-2 expression (Mmp-2, Mmp-9, Mmp-13 [3]): not significantly different
- Mmp-9 expression (Mmp-2, Mmp-9, Mmp-13 [3]): significant upregulation
- Mmp-13 expression (Mmp-2, Mmp-9, Mmp-13 [3]): significant upregulation
- Mmp-2 expression (Mmp-2, Mmp-9, Mmp-13 [4]; 2 days): no significant difference
- Mmp-9 expression (Mmp-2, Mmp-9, Mmp-13 [4]; 2 days): not detected
- Mmp-13 expression (Mmp-2, Mmp-9, Mmp-13 [4]; 2 days): significantly higher
- Mmp-2 expression (Mmp-2, Mmp-9, Mmp-13 [4]; 5 days): no significant difference
- Mmp-9 expression (Mmp-2, Mmp-9, Mmp-13 [4]; 5 days): higher
- Mmp-13 expression (Mmp-2, Mmp-9, Mmp-13 [4]; 5 days): significantly higher

Source: patent US20210220450A1, “TREATMENT OF AN IOP CONDITION” (The Research Foundation for The State University of New York, priority 2013, published 2021)
